Test: gradient 5% acetonitrile 3 min, to 50% in 2 min, to 85% in 15 min, held 3 min, 100 µL/min
Conditions: column: Zorbax Extend-C18 2.1 x 50 mm; eluents: water / acetonitrile, 0.1% formic acid
Procedure, shortened: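 Standards, all pure, were combined into mixtures of ~100 molecules and run at 100 μL/min on a Zorbax Extend-C18 column (2.1 × 50 mm, 1.8 μm) with water and acetonitrile, each containing 0.1% formic acid. A coupled quadrupole time-of-flight mass spectrometer operated in positive and negative ionization mode. Retention time values come from computationally picked adduct peaks, each inspected manually.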

| RP-LC retention time [s] | Compound |
| --- | --- |
| 762 | Cc1nc(CCNC(=O)C2CCN(S(=O)(=O)c3ccc(F)c(Cl)c3)CC2)cs1 |
| 716 | CCOC(=O)N1CCN(C(=O)CSc2ccc(-c3ccc(OC)cc3)nn2)CC1 |
| 798 | Cc1cccc(NC(=O)C2CCCN2S(=O)(=O)c2cccc3nsnc23)n1 (configuration not stated) |
| 800 | COc1cccc(C(=O)N2CCC3(CC2)NC(=O)c2cc(Cl)ccc2N3C)c1 |
| 749 | O=C(c1ccnc(-c2cccs2)c1)N1CCN(c2ncccn2)CC1 |
| 733 | CC(C)n1c(=O)c(NCc2ccc(OC(F)(F)F)cc2)nc2ccncc21 |
| 837 | Cc1cccc(-n2c(=O)c3c(cc(C)n3C)n(CC(=O)Nc3ccc4c(c3)OCO4)c2=O)c1 |
| 834 | CC(C(=O)N1CCN(C(=O)c2ccco2)CC1)n1c(=O)c(C(F)(F)F)nc2ccccc21 (configuration not stated) |
| 1020 | CC(C)n1c(=O)sc2cc(S(=O)(=O)N3CCC(C(=O)NCCC4=CCCCC4)CC3)ccc21 |
| 631 | Cn1cnc2cc(CNC(=O)c3cccc(Cl)c3)ccc21 |
| 912 | CC(NS(=O)(=O)c1cccc(Cl)c1)C(=O)Nc1ccc(Br)cc1F (configuration not stated) |
| 996 | O=c1c2c(CO)c(-c3ccccc3)nn2ccn1Cc1cccc(C(F)(F)F)c1 |
| 702 | CCn1c(=O)n(CC)c2cc(NC3=NS(=O)(=O)c4ccccc43)ccc21 |
| 826 | Cc1noc(CN2N=C(C(=O)N3CCC(C)CC3)S(=O)(=O)c3ccccc32)n1 |
| 1170 | CCc1ccc(-n2ncc3c(=O)n(Cc4nc(-c5ccc(F)cc5)no4)cnc32)cc1 |
| 805 | COc1ccc(-c2ccnc3nc(C4CC4)nn23)cc1 |
| 718 | CC(C)CNC(=O)Cc1nnc(-c2ccccc2)o1 |
| 627 | O=C(NC1CCc2nn(CC3CC3)c(=O)n2CC1)c1cc(C2CC2)[nH]n1 (configuration not stated) |
| 761 | CC1CC(=O)c2cnn(-c3nc4ccccc4[nH]3)c2C1 (configuration not stated) |
| 657 | COC(=O)c1nnn(CC(=O)NCc2ccc3c(c2)OCO3)c1C(=O)OC |
| 761 | COC(=O)Cn1c(C)cc(=O)n2nc(-c3ccccc3C)nc12 |
| 748 | COc1ccc(CN2CN=C(Nc3nc(C)c4cc(OC)ccc4n3)NC2)cc1 |
| 955 | CCC(C)NS(=O)(=O)c1cc(-c2nnc(-c3ccccc3)o2)ccc1OC (configuration not stated) |

| RP-LC retention time [s] | Compound |
| --- | --- |
| 834 | COCCN1C(=O)c2cc(-c3ccc(OC)cc3)nn2CC1(C)C(=O)NCc1ccccc1 (configuration not stated) |
| 863 | CCN1c2ccc(F)cc2C(=O)NC12CCN(C(=O)Cc1ccccc1Cl)CC2 |
| 652 | Cc1ccc(NC(=O)C2CCCN(S(=O)(=O)c3c[nH]c(C(=O)N4CCCCCC4)c3)C2)cc1F (configuration not stated) |
| 670 | Cc1ccc(CNC(=O)CNC(=O)N2CCSc3nc(C)cc(C)c32)cc1 |
| 709 | CCC(NC(=O)Cc1cn(C)c2ncccc12)c1cccs1 (configuration not stated) |
| 1020 | Cc1cc(C)nc(SCC(=O)Nc2nc(-c3ccccc3)cs2)n1 |
| 709 | CCC(=O)N1CCCC1c1nc2ccccc2n1CC(=O)N(c1ccccc1)C(C)C (configuration not stated) |
| 669 | CCN(CC)C(=O)Cn1nc2nc(Nc3ccc(F)cc3)ccn2c1=O |
| 696 | CN1CC(CNS(=O)(=O)c2ccccc2C(F)(F)F)C2(CCCCC2)C1 (configuration not stated) |
| 624 | O=C(NCc1cccnc1)C1CCN(Cc2cc3ccccc3n2Cc2ccccc2)CC1 |
| 592 | COc1cccc(CN2C[C@@H](CO)[C@H](c3ccccn3)C2)c1OC |
| 875 | COc1ccc(N2CCN(c3cc(SCC(=O)NC4CCCCC4)ncn3)CC2)cc1 |
| 1280 | Cc1c(-c2noc(C(=O)N3CCc4ccccc4C3)n2)oc2c(C)cccc12 |
| 946 | Nc1ccccc1C(=O)NC(=O)Nc1ccc(Oc2ncc(Br)cn2)c(Cl)c1 |
| 728 | O=C1NCCCn2cc(S(=O)(=O)Nc3ccc(C(F)(F)F)cc3)cc21 |
| 694 | COC(=O)CSc1nnc(-c2sc3ncccc3c2N)n1C1CC1 |
| 880 | O=C(Cn1c(=O)c2cccn2c2ccccc21)Nc1cccc(C(F)(F)F)c1 |
| 1420 | CCn1c(=O)c(N2CCCC(C(=O)N3CCN(c4cc(Cl)ccc4C)CC3)C2)nc2ccccc21 (configuration not stated) |
| 852 | CC(COc1ccccc1Cc1ccccc1)N1CCCCC1 (configuration not stated) |
| 827 | Cc1cc(C)n2nc(SCC(=O)Nc3cccc(C(F)(F)F)c3)nc2n1 |
| 656 | Cc1ccccc1C1CC(=O)c2c(C)nc(N3CCN(CCO)CC3)nc2C1 (configuration not stated) |
| 623 | O=c1cc(N2CCOCC2)c(-c2ccccc2)n[nH]1 |
| 820 | COc1ccc(C(=O)N2CCC3(CC2)N=C(c2ccc(Br)cc2)NO3)cc1OC |

| RP-LC retention time [s] | Compound |
| --- | --- |
| 990 | CN(C)c1cccc(-c2nc(-c3ccc4c(c3)nnn4CCC(=O)N3CCCC3)no2)c1 |
| 574 | CCNc1cc(N2CCC(CCC(=O)NCc3ccc(F)cc3)CC2)ncn1 |
| 758 | O=S(=O)(Nc1ccc(Cn2cncn2)cc1)c1ccc(F)c(Cl)c1 |
| 897 | COC(=O)c1cc(Cl)ccc1NC(=O)COc1nc(C)nc2ccccc12 |
| 966 | Cc1nn(-c2ccccc2)c2sc(C(=O)NC(C)C)cc12 |
| 1060 | COc1ccc(C2(C(=O)Nc3cc(-c4cccs4)no3)CC2)cc1 |
| 992 | O=C(Cn1cccc(-c2nc(-c3ccc(Br)cc3)no2)c1=O)Nc1cccc(F)c1 |
| 720 | C#CCCNC(=O)c1ccc(C)c(C)c1 |
| 797 | CCOc1ccc2sc(NS(=O)(=O)c3ccc(N)cc3)nc2c1 |
| 641 | CC(C)N1CCN(S(=O)(=O)c2cc(-c3nnc(C4CCCC4)o3)co2)CC1 |
| 866 | O=C(c1ccc2cc[nH]c2c1)N1CCC(c2nc(-c3ccccc3)no2)C1 (configuration not stated) |
| 919 | CCOc1ccccc1NC(=O)C(CC)n1cnc2nc3c(cc2c1=O)CCCC3 (configuration not stated) |
| 914 | CC(C)CCNC(=O)N1CC(c2nc(-c3ccccc3)no2)C2(CCOCC2)C1 (configuration not stated) |
| 665 | CCn1ccc2cc(S(=O)(=O)N3CCC(C(=O)NCCCN4CCCCC4C)CC3)ccc21 (configuration not stated) |
| 832 | CCn1cnc2ccc(-c3noc(-c4ccc(C)cc4)n3)cc21 |
| 666 | Cn1nc(C(=O)N2CCCCC2)c2c1CCN(C(=O)CCC(=O)NC1CCCC1)C2 |
| 682 | CC(=O)N1CCc2sc(C(=O)NCc3ccc4c(c3)OCO4)cc2C1 |
| 698 | Cc1cccc(Cl)c1NC(=O)CSc1ccc(N2CCCC(C(=O)NC3CC3)C2)nn1 (configuration not stated) |
| 1050 | CC(C)c1noc(-c2cc(=O)n(CC(=O)Nc3ccccc3Cl)c3ccccc23)n1 |
| 624 | O=C(CCc1csc(NC(=O)c2ccc(F)cc2)n1)NCCn1ncccc1=O |
| 605 | O=C(NC1CC1)[C@@H]1C[C@H](Oc2cccnc2)CN1C(=O)CC1CCCC1 |
